Laboratory results: patent publication US7648711B2, “Dimethicone-containing sustained release injection formulation” (priority 2003, dated 2010)
Read-outs that look alike come from different tables or passages of the source.

Experiment: Solubility of therapeutic drugs in dimethicone
Type: physicochemical
Excerpt: Thus, from the view point of bio-compatibility, dimethicone is suitable to be used as medium to prepare formulation for subcutaneous injection. […] Therefore, this will not pose any stability problem when using silicone as medium to prepare suspensions comprising the aforesaid drugs, which is one of the important factors usually affecting the sustained action of a long-lasting formulation. […] When hydrogenated castor oil used within the proper range (0.2% to 0.5%), the resulting liquid suspension is better in terms of stability, fluidibility, injectability and long-lasting releasing effect than the injection formulation prepared using water, vegetable oil or other organic liquid as the suspension medium. Hydrogenated castor oil functions as a suspending agent and enhances the effect of sustained releasing. In addition, when the formulation of the present invention is prepared by the micro powder crystallizing method, the presence of hydrogenated castor oil suppresses the growth of the crystal nucleus of active ingredients, whereby producing micro powder of active ingredients with a particle size of 20 micrometers or smaller. (4) By mixing the active ingredients with hydrogenated castor oil or with the-combination of hydrogenated castor oil and ethylcellulose to produce solid dispersion micro powder with particle size smaller than 300 micrometers, then dispersing the micro powder in silicone oil and grinding with a colloid mill or a ball mill, a long lasting release formulation containing solid dispersion of various particle sizes (from 10 micrometer to 150 micrometers) can be produced. Further, the sustained releasing effect of the formulation may be modified by adjusting the particle size of the solid dispersion and the proportion of hydrogenated castor oil relative to the active ingredients. For instance, sustained release formulations with various durations of effectiveness may be prepared as follows: mixing avermectins with hydrogenated castor oil to produce two solid dispersions with the avermectins to hydrogenated castor oil equal to 1:2 and 2:1, respectively, then mixing the two solid dispersions at a given ratio and dispersing the mixture in silicone oil, and producing the solid dispersion in the system with the particle size varying between 85 micrometers to 120 micrometers by controlling the extent of grinding. The formulation can provide an effective sustained releasing period up to 140 days following a single administration. Furthermore, the injection prepared by the above method has better injectability, stability and biocompatibility than water or vegetable oil based sustained release formulations for solid dispersion micro powder of avermectins/hydrogenated castor oil. Specifically, the formulation using water as medium has three disadvantages. First, it has difficulty to maintain an effective sustained releasing for more than 80 days. Second, it has poor injectability and, without adding more water soluble suspension assisting agents, solid suspension phase may “separate” from the water phase, causing injection failure due to blocking of the syringe needle. Third, it results in tissue lumps around the injection site. Other organic liquid based long-lasting formulations have similar problems.

Compound	Solubility in dimethicone	Solubility in dimethicone (dimethicone)
CO/N=C(\C(=O)N[C@@H]1C(=O)N2C(C(=O)O)=C(CSC(=O)c3ccco3)CS[C@H]12)c1csc(N)n1 [ceftiofur]	less than 0.01%	
O=C(NC(=O)c1c(F)cccc1F)Nc1ccc(Cl)cc1 [diflubenzuron]		less than 0.01%
CC1(C)S[C@@H]2[C@H](NC(=O)Cc3ccccc3)C(=O)N2[C@H]1C(=O)[O-].[Na+] [penicillin G sodium salt]	less than 0.01%	
CC1(C)S[C@@H]2[C@H](NC(=O)Cc3ccccc3)C(=O)N2[C@H]1C(=O)[O-].[K+] [penicillin G potassium salt]	less than 0.01%	
O=[N+]([O-])NC1=NCCN1Cc1ccc(Cl)nc1 [imidacloprid]	less than 0.01%	
